Patent US4051141A, “Thieno[3,2-c]pyridine derivatives” (Centre d'Etudes pour l'Industrie pharmaceutique, priority 1973, dated 1977)

How the values were obtained:
in vivo = details: mouse, iv, read-out: LD50/24 hrs/kg body weight
ovalbumin-induced edema = assay: Ovalbumin-induced systemic edema method (anti-inflammatory action); assay type: in vivo; details: rats, oral 100 mg (1 h before and with ovalbumin)
Method: b. Ovalbumin-induced Systemic Edema Method Rats are administered a simultaneous intraperitoneal injection of 1 ml ovalbumin and 0.5 ml of a 1.[…]. aqueous Evans Blue solution. The animals of the treated lot are additionally administered orally 100 mg of the test derivative, one hour prior to ovalbumin administration and simultaneously with said ovalbumin administration. The intensity of the phenomenon thus induced is scored according to a scale from 1 to 5, according to the progress of the inflammatory syndrome. Thus are determined the mean intensity of the edema and the percent decrease of the edema reaction with respect to the control lot. Said percentage, for derivative No. 5, for example, is 62% after two hours and 70% after three hours.

[1] = test system: carrageenin-induced edema; assay: Localised carrageenin-induced edema method (anti-inflammatory action); assay type: in vivo; details: rats, oral 100 mg/kg (1 h before, with, 1 h and 2.5 h after)
Method: a. Localised Carrageenin-induced Edema Method A 1% carrageenin solution (1 ml) is injected in the metatarsal flexor muscles of the right hind paw of rats at time O. The animals of the treated lots are additionally administered orally 100 mg/kg of the test derivative, respectively one hour prior to and then simultaneously with the phlogogenic agent, and then one hour and 2.5 hrs thereafter. The percent anti-inflammatory activity with respect to the reference lot, as a function of time, is determined by measurements effected with a Roch micrometer at times O, one hour, two hours, three hours and five hours after carrageenin administration.

blood plate aggregation = assay: Inhibitor action on blood plate aggregation induced by adenosine diphosphate (turbidimetric assay of serum from treated animals); assay type: in vivo; details: rats, 100 mg/kg
From the text: 2. Inhibitor Action on Blood Plate Aggregation
The normally cloudy blood plate rich serum of rats is made clear by addition of adenosine diphosphate which induces aggregation of the blood plates. […] Thus, the inhibitor action on blood plate aggregation of the test derivatives may be evaluated by means of a simple spectrophotometric turbidimetric assay.

[2] = Acute toxicity, LD50/24 hrs, intravenous, derivatives of formula (IV); details: mouse, in vivo, mice, read-out: LD50/24 hrs/kg body weight
From the text: It concerned the acute toxicity, the subacute toxicity, the chronic toxicity, the tolerance and the teratology of said derivatives.

Structure (SMILES) | LD50 at 24 h [2] | further results
COc1cc(CN2CCc3sccc3C2)cc(OC)c1OC [derivative 3, 5-(3,4,5-trimethoxy-benzyl)-4,5,6,7-tetrahydrothieno[3,2-c]pyridine] | – | LD50 at 24 h (in vivo): 60 mg/kg
Cl.Clc1ccc(CN2CCc3sccc3C2)cc1 [derivative 5, 5-parachlorobenzyl-4,5,6,7-tetrahydro-thieno-[3,2-c]pyridine hydrochloride] | – | percent decrease of the edema reaction with respect to the control lot (ovalbumin-induced edema; after three hours): 70%; percent decrease of the edema reaction with respect to the control lot (ovalbumin-induced edema; after two hours): 62%; percent anti-inflammatory activity with respect to the reference lot ([1]; after five hours): 55%; percent anti-inflammatory activity with respect to the reference lot ([1]; after one hour): 45%; percent anti-inflammatory activity with respect to the reference lot ([1]; after three hours): 52%; percent anti-inflammatory activity with respect to the reference lot ([1]; after two hours): 51%; protection against blood plate aggregation (blood plate aggregation): greater than 95%
O=C(C[n+]1ccc2sccc2c1)c1ccccc1.[Br-] [derivative No. 24, 5-phenacyl-thieno[3,2-c]pyridinium bromide] | 19 mg/kg | –
COc1ccccc1C(=O)C[n+]1ccc2sccc2c1 [derivative No. 25, 5-(O-Methoxy-Phenacyl)-Thieno[3,2-c]Pyridinium bromide] | 18 mg/kg | –
O=C(C[n+]1ccc2sc(Cl)cc2c1)c1ccccc1.[Br-] [derivative No. 26, 2-chloro-5-phenacyl-thieno[3,2-c]pyridinium bromide] | 38 mg/kg | –
O=C(C[n+]1ccc2sccc2c1)c1ccc(Cl)cc1.[Br-] [derivative No. 27, N-parachloro-phenacyl-thieno[3,2-c]pyridinium bromide] | 17.5 mg/kg | –
O=C(C[n+]1ccc2sccc2c1)c1ccc(F)cc1.[Cl-] [derivative No. 29, 5-para-fluoro-phenacyl-thieno[3,2-c]pyridinium chloride] | 16 mg/kg | –
O=C(C[n+]1ccc2sccc2c1)c1ccc(O)cc1.[Cl-] [derivative No. 30, N-(para-hydroxy-phenacyl)-thieno[3,2-c]pyridinium chloride] | 25 mg/kg | –
COc1ccc(C(=O)C[n+]2ccc3sccc3c2)cc1.[Br-] [derivative No. 31, N-(para-methoxy-phenacyl)-thieno[3,2-c]pyridinium bromide] | 32 mg/kg | –
COc1cccc(C(=O)C[n+]2ccc3sccc3c2)c1.[Br-] [derivative No. 32, N-(meta-methoxy-phenacyl)-thieno[3,2-c]pyridinium bromide] | 16 mg/kg | –
